Source: ChEMBL document CHEMBL3046627, “Synthesis and in vitro study of antibacterial, antifungal activities of some novel bisquinolines” (2013)
Converted amounts (≈) assume the structure as drawn. The source made the active and inactive calls. The rule behind the calls is not given here.

Key:
Micrococcus luteus [1] = assay: Antibacterial activity against Micrococcus luteus ATCC 9341 assessed as growth inhibition at MIC after 24 hr by agar dilution method; type: functional
Escherichia coli [2] = assay: Antibacterial activity against Escherichia coli 319 assessed as growth inhibition at MIC; type: functional, organism-based; conditions: TDE = time-dependent effect
Candida tropicalis [3] = assay: Antifungal activity against Candida tropicalis assessed as growth inhibition after 96 hr by agar dilution method; type: functional
Escherichia coli [4] = assay: Antibacterial activity against Escherichia coli 319 assessed as growth inhibition at MIC after 24 hr by agar dilution method; type: functional
Candida albicans [5] = assay: Antifungal activity against Candida albicans assessed as growth inhibition at MIC after 96 hr by agar dilution method; type: functional
Klebsiella pneumoniae [6] = assay: Antibacterial activity against Klebsiella pneumoniae J/I/4 assessed as growth inhibition at MIC after 24 hr by agar dilution method; type: functional
Aspergillus niger [7] = assay: Antifungal activity against Aspergillus niger assessed as growth inhibition at MIC after 96 hr by agar dilution method; type: functional
Vibrio cholerae [8] = assay: Antibacterial activity against Vibrio cholerae 759 assessed as growth inhibition after 24 hr by agar dilution method; type: functional; conditions: Vibrio cholerae, 759, 24 h
Cryptococcus neoformans [9] = assay: Antifungal activity against Cryptococcus neoformans assessed as growth inhibition after 96 hr by agar dilution method; type: functional
Staphylococcus aureus [10] = assay: Antibacterial activity against Staphylococcus aureus 29737 assessed as growth inhibition after 24 hr by agar dilution method; type: functional; conditions: Staphylococcus aureus, 29737, 24 h
Micrococcus luteus [11] = assay: Antibacterial activity against Micrococcus luteus ATCC 9341 assessed as growth inhibition after 24 hr by agar dilution method; type: functional; conditions: ATCC 9341, 24 h
Cryptococcus neoformans [12] = assay: Antifungal activity against Cryptococcus neoformans assessed as growth inhibition at MIC after 96 hr by agar dilution method; type: functional
Staphylococcus aureus [13] = assay: Antibacterial activity against Staphylococcus aureus 29737 assessed as growth inhibition at MIC after 24 hr by agar dilution method; type: functional
Aspergillus niger [14] = assay: Antifungal activity against Aspergillus niger assessed as growth inhibition after 96 hr by agar dilution method; type: functional
Candida tropicalis [15] = assay: Antifungal activity against Candida tropicalis assessed as growth inhibition at MIC after 96 hr by agar dilution method; type: functional
Shigella dysenteriae [16] = assay: Antibacterial activity against Shigella dysenteriae 15 assessed as growth inhibition after 24 hr by agar dilution method; type: functional; conditions: Shigella dysenteriae, 15, 24 h
Shigella dysenteriae [17] = assay: Antibacterial activity against Shigella dysenteriae 15 assessed as growth inhibition at MIC after 24 hr by agar dilution method; type: functional
Candida albicans [18] = assay: Antifungal activity against Candida albicans assessed as growth inhibition after 96 hr by agar dilution method; type: functional
Escherichia coli [19] = assay: Antibacterial activity against Escherichia coli 319 assessed as growth inhibition after 24 hr by agar dilution method; type: functional; conditions: Escherichia coli, 319, 24 h
Bacillus pumilus [20] = assay: Antibacterial activity against Bacillus pumilus 11778 assessed as growth inhibition after 24 hr by agar dilution method; type: functional; conditions: Bacillus pumilus, 11778, 24 h
Klebsiella pneumoniae [21] = assay: Antibacterial activity against Klebsiella pneumoniae J/I/4 assessed as growth inhibition after 24 hr by agar dilution method; type: functional; conditions: J/I/4, 24 h
Vibrio cholerae [22] = assay: Antibacterial activity against Vibrio cholerae 759 assessed as growth inhibition at MIC after 24 hr by agar dilution method; type: functional
Bacillus pumilus [23] = assay: Antibacterial activity against Bacillus pumilus 11778 assessed as growth inhibition at MIC after 24 hr by agar dilution method; type: functional
Pseudomonas aeruginosa [24] = assay: Antibacterial activity against Pseudomonas aeruginosa 71 assessed as growth inhibition after 24 hr by agar dilution method; type: functional; conditions: Pseudomonas aeruginosa, 71, 24 h
Pseudomonas aeruginosa [25] = assay: Antibacterial activity against Pseudomonas aeruginosa 71 assessed as growth inhibition at MIC after 24 hr by agar dilution method; type: functional

Clc1ccc(OCc2ccccc2COc2ccc(Cl)c3cccnc23)c2ncccc12
diameter of the inhibition zone (DIZ) (Micrococcus luteus [1]): 6.5 mm
growth inhibition (GI) (Escherichia coli [2]): tde
MIC (Candida tropicalis [3]): 1000 µg/mL (≈ 2170 µM)
diameter of the inhibition zone (DIZ) (Escherichia coli [4]): 6.5 mm
diameter of the inhibition zone (DIZ) (Candida albicans [5]): 7 mm
diameter of the inhibition zone (DIZ) (Klebsiella pneumoniae [6]): inactive
diameter of the inhibition zone (DIZ) (Aspergillus niger [7]): 7.5 mm
MIC (Vibrio cholerae [8]): 32 µg/mL (≈ 69.4 µM)
MIC (Cryptococcus neoformans [9]): inactive
MIC (Staphylococcus aureus [10]): 128 µg/mL (≈ 277 µM)
MIC (Micrococcus luteus [11]): 32 µg/mL (≈ 69.4 µM)
diameter of the inhibition zone (DIZ) (Cryptococcus neoformans [12]): inactive
diameter of the inhibition zone (DIZ) (Staphylococcus aureus [13]): 7 mm
MIC (Aspergillus niger [14]): 1000 µg/mL (≈ 2170 µM)
diameter of the inhibition zone (DIZ) (Candida tropicalis [15]): 9 mm
MIC (Shigella dysenteriae [16]): 64 µg/mL (≈ 139 µM)
diameter of the inhibition zone (DIZ) (Shigella dysenteriae [17]): 6 mm
MIC (Candida albicans [18]): 1500 µg/mL (≈ 3250 µM)
MIC (Escherichia coli [19]): 32 µg/mL (≈ 69.4 µM)
MIC (Bacillus pumilus [20]): 32 µg/mL (≈ 69.4 µM)
MIC (Klebsiella pneumoniae [21]): > 500 µg/mL
diameter of the inhibition zone (DIZ) (Vibrio cholerae [22]): 7 mm
diameter of the inhibition zone (DIZ) (Bacillus pumilus [23]): 6 mm
MIC (Pseudomonas aeruginosa [24]): 64 µg/mL (≈ 139 µM)
diameter of the inhibition zone (DIZ) (Pseudomonas aeruginosa [25]): 7.5 mm
